This data set in a line: Susceptibility of montelukast sodium to degradation. Format: physicochemical.

Each structure is given as a SMILES string.

Results on one molecule are retold here after patent publication US20090124657A1, “PHARMACEUTICAL COMPOSITIONS COMPRISING MONTELUKAST” (priority 2007, published 2009).

Take `CC(C)(O)c1ccccc1CC[C@@H](SCC1(CC(=O)O)CC1)c1cccc(/C=C/c2ccc3ccc(Cl)cc3n2)c1` [Montelukast sodium, [R-(E)]-1-[[[1-[3-[2-(7-chloro-2-quinolinyl)ethenyl]phenyl]-3-[2-(1-hydroxy-1-methylethyl)phenyl]propyl]thio]methyl]cyclopropaneacetic acid]: where the note is “significant increase in mok-3 sulfoxide impurity”, the “Susceptibility to oxidative degradation (including atmospheric oxygen)” value was “highly susceptible”. Moreover, the “Susceptibility to acid hydrolysis” value (significant increase in styrene impurity) is reported as “highly susceptible”.
